From PMC11945486, “TAS1R2/TAS1R3 Single-Nucleotide Polymorphisms Affect Sweet Taste Receptor Activation by Sweeteners: The SWEET Project” (Nutrients, 2025)

Target: T1, human TAS1R2-R317G (subunit alone) (Homo sapiens, UniProt Q8TE23, R317G)
T1 construct: expressed in transfected cells; host or cells: HEK293T-Gα16gust44
T1 sequence (Q8TE23 20-839 R317G): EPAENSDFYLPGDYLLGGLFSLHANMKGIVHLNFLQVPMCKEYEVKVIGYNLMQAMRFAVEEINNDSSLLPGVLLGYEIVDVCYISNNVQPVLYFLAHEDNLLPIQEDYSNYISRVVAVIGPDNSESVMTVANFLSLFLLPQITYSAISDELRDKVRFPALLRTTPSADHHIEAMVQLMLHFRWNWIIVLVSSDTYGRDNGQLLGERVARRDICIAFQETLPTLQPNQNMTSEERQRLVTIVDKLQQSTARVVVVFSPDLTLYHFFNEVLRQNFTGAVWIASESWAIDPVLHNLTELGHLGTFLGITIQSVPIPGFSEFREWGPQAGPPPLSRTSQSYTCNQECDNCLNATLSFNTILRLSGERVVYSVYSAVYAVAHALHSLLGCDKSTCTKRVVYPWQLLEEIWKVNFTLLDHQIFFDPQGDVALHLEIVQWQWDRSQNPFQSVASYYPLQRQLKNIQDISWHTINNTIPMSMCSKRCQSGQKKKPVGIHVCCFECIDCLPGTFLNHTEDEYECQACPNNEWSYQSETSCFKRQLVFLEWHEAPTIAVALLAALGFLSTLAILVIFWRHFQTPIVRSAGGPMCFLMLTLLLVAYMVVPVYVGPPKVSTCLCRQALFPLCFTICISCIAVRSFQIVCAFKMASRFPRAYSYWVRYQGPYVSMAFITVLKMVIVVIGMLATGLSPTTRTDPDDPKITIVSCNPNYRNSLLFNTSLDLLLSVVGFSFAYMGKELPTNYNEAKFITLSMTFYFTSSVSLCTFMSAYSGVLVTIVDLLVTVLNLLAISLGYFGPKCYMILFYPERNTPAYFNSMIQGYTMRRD
Test: Calcium mobilisation assay, TAS1R2-R317G subunit alone
Format: cell-based
Source text: The coding sequences for TAS1R2 and TAS1R3 were commercially synthesised, and the human codon was optimised for expression in human cells. The coding sequences of human TAS1R2 and TAS1R3 were subcloned and inserted into the mammalian expression vectors pcDNA6/myc-HisA and pcDNA4/myc-HisA (Invitrogen; Thermo Fisher Scientific; Illkirch, France) between the EcoRI and NotI restriction sites, generating the plasmids pcDNA6-TAS1R2 and pcDNA4-TAS1R3, respectively. To increase protein expression in mammalian cells, an upstream start codon was used, which was a sequence called MAX, corresponding to the QBI SP163 element also described in pcDNA4-HisMax (Invitrogen; Thermo Fisher Scientific; Illkirch, France). To measure the expression level of the receptor by immunohistochemistry, we used the FLAG sequence ([…]) in the C-terminal position, which encodes the FLAG tag epitope. […]
The HEK293T cells were kindly provided by Jay P. Slack (Givaudan Flavors Corporation; Cincinnati, OH, USA). […] The fluorescence intensity was measured for 90 s (excitation 488 nm, emission 510 nm) in an automated fluorometric FlexStation®3 Multi-Mode microplate reader (Molecular Devices; San Jose, CA, USA). […] The Ca^2+ changes were expressed as fractional changes in fluorescent light intensity: ΔF/F = (F − F0)/F0, where F was the fluorescent light intensity at each point, and F0 was the value of emitted fluorescent light prior to stimulus application. To calculate dose–response relationships, the changes in fluorescence upon stimulus application were averaged, mock-subtracted and baseline-corrected. […] The half-maximal effective concentrations (EC50 values) and maximal signal amplitudes were calculated using SigmaPlot software (version 15.0) (Systat Software; San Jose, CA, USA).
For in vitro calcium mobilisation assay performed on hTAS1R2-SNPs, hTAS1R3-SNPs and mTAS1R3-I60T, 6 to 7 concentrations were tested for each sweet compound, plus buffer alone. All concentration–receptor combinations were measured in duplicate, and each experiment was repeated at least 4 times (8 wells/concentration). […]

EC50: 225 ± 31.9 µM | R1 = Variant EC50/WT EC50: 2.5 | Max ΔF/F0 (maximal signal amplitude): 0.17 ± 0.01
Structure (SMILES): C=C(C)[C@@H]1CC=C(/C=N/O)CC1 [Perillartine, perillartine]
